Activity calls are given as the source filed them.

These results are taken from ChEMBL document CHEMBL1201862, “PubChem BioAssay data set” (2004).

One test concerns INS1. Description: beta cell apoptosis inhibitors, cytokine rescue, dose response, luminescence, retest (AID 449756).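 Further: cell death triggered by IL-1 beta plus TNF-alpha plus IFN-gamma mixture; protective hits raise ATP signal compared with cytokine alone wells.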 Type of test: functional, cell-based. The following applies: Rattus norvegicus.
The nature of test [1]: Shn3 3'UTR reporter inhibitors, dose response, cell-based, Clone20 osteoblasts, firefly luciferase, cherry-picked (AID 624132).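 Further: firefly luciferase luminescence from reporter carrying the Shn3 3'UTR in osteoblasts.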 Type of test: functional.
Test [2] is described as follows: HepG2 cell cytotoxicity, dose response, cytotoxicity control for Shn3 inhibitor project, CellTiter-Glo, cherry-picked (AID 624134). The format is functional, cell-based. For orientation: In ATP-based viability assays light output follows the ATP content of the culture.
Test [3] can be described thus: control 3'UTR Renilla luciferase suppression, dose response, counter-screen for Shn3 inhibitor project, cell-based, Clone20-Shn3RL, cherry-picked (AID 624133). Type of test: functional.
In test [4] the target is COUP transcription factor 2 (Homo sapiens, UniProt P24468). Description: Luminescence-based cell-based high throughput dose response assay to identify inhibitors of COUP-TFII (NR2F2). The format is functional.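 Further: HEK293 cells transiently cotransfected with COUP-TFII expression vector and reporter; luciferase reporter luminescence driven by COUP-TFII from the pX2-168 reporter plasmid.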
In the next test the target is Major prion protein (Homo sapiens, UniProt P04156). The format is functional, cell-based.
Test [5] can be described thus: cells.
The nature of test [6]: inhibitors of PGC1a acetylation in cells, dose response, cell-based, cherry-picked samples (AID 720514).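 Further: potency may reflect raised or lowered acetylation signal.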 The format is functional.
For a further test, the target named is Caspase-6 (Homo sapiens, UniProt P55212). As to the kind of experiment: human caspase-6 inhibitors, dose response, biochemical, VEID-R110 fluorescence, cherry-pick (AID 720632).
Test [7] is described as follows: inhibitors of firefly luciferase expression or activity, dose response, H4 neuroglioma cells, luminescence (AID 1990). The format is functional, cell-based.
Test [8] can be described thus: Luminescence Cell-Based Dose Response HTS to Identify Inhibitors of 5'UTR Stem-Loop Driven Prion Protein mRNA Translation in H4 Neuroglioblastoma Cells. [Related pubchem assays: 1827 (Project Summary), 1813 (Primary HTS)]. The format is functional.
The nature of test [9]: inhibitors of SNCA 5'UTR-driven reporter translation, confirmation, H4 neuroglioma cells, luminescence (AID 1988). The format is functional, cell-based.
The nature of test [10]: cells. Type of test: functional, cell-based.
The target in test [11] is T1, Nuclear receptor subfamily 0 group B member 1 (Homo sapiens, UniProt P51843).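 Further: HEK293T cells transfected with SF-1 and DAX-1 plus StAR promoter luciferase reporter.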
T1 sequence (P51843 whole entry): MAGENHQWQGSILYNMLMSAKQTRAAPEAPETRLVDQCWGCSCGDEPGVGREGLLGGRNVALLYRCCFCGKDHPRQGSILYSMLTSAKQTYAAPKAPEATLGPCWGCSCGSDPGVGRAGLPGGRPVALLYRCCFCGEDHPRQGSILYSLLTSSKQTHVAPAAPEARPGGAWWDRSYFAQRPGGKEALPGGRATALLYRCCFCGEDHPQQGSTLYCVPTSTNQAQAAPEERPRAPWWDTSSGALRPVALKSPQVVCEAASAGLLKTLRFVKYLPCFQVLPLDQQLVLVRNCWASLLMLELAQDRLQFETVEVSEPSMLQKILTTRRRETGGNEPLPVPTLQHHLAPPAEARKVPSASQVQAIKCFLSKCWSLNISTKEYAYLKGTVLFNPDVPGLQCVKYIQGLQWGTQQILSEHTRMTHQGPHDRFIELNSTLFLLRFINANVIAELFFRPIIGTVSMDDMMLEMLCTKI
Type of test: functional, cell-based.

Test [12] concerns the target Induced myeloid leukemia cell differentiation protein Mcl-1 (Homo sapiens, UniProt Q07820). The format is functional.
Test [13] in a line: ADAM10 inhibitors, peptide cleavage, dose response, biochemical, QFRET (AID 743254).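 Further: ADAM10 enzyme with the DM2 quenched FRET peptide as substrate; EDANS fluorescence gain as the protease cuts the substrate; inhibitor potency against ADAM10 proteolytic activity.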
Test [14] addresses T2, Disintegrin and metalloproteinase domain-containing protein 17 (Homo sapiens, UniProt P78536). As to the kind of experiment: ADAM17 protease inhibitors, dose response, counter-screen for ADAM10 exosite inhibitor project, biochemical, quenched FRET substrate (AID 743253).
A short description of test [15]: cells. Type of test: functional, cell-based. The conditions noted are these: HEK-CNG.
Test [16] concerns the target T2, Disintegrin and metalloproteinase domain-containing protein 17. As to the kind of experiment: exosite inhibitors of ADAM17, dose response, biochemical (AID 743260).
The nature of test [17]: ADAM10 protease inhibitors, dose response, selectivity assay for ADAM17 exosite inhibitor project, biochemical, FRET peptide substrate, recombinant human ADAM10 (AID 743259).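 Further: ADAM10 enzyme cleaving a FRET peptide substrate.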
Test [18] in a line: cells. Type of test: functional, cell-based. This is another data set of the same source.
For test [19], the target named is T3, Trace amine-associated receptor 1 (Homo sapiens, UniProt Q96RJ0).
T3 sequence (Q96RJ0 whole entry): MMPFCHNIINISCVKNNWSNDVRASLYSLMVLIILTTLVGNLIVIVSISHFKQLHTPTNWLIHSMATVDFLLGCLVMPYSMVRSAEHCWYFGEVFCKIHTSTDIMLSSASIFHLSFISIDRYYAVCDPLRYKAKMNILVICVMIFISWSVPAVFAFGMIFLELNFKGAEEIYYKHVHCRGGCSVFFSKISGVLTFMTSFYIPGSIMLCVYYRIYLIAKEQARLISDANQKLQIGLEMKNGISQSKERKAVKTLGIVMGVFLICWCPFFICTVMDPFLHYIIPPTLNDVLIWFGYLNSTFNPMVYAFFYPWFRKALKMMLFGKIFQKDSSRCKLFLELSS
As to the kind of experiment: Fluorescence-based cell-based high throughput dose response assay to identify agonists of the human trace amine associated receptor 1 (TAAR1). Type of test: functional.

The target in test [20] is T3, Trace amine-associated receptor 1. Description: Counterscreen for agonists of the human trace amine associated receptor 1 (hTAAR1): Fluorescence-based cell-based high throughput dose response assay to identify hTAAR1 agonist that also desensitize TAAR1 receptor response. Type of test: functional. For orientation: The purpose of a counterscreen is to sort out artefacts and off-target activity.

Test [21] is described as follows: cells. The format is functional, cell-based. The source holds these as a separate data set.
In the next test the target is Galanin receptor type 3 (Homo sapiens, UniProt O60755). Description: Fluorescence-based cell-based primary high throughput dose response assay to identify antagonists of the Galanin Receptor 3 (GalR3). Type of test: functional.

As usually defined, the AC50 is the concentration giving half of the maximal activity seen. Broadly, the IC50 is the point on the concentration scale where inhibition reaches its midpoint. On to `Cc1ccc(C(=O)NC2CCCc3c2cnn3-c2ccc(F)cc2F)cn1` (stereo unspecified), for which the AC50 is 4.93 µM (active) with INS1, 921 nM (active) in test [1], 2.34 µM (active) in [2] and 6.81 µM (active) in test [3]. Further, in [4], the IC50 was 3.66 µM (active).

On to `COc1ccc(NC(=O)NNC(=O)COc2ccc3cc(Br)ccc3c2)cc1OC`, for which the IC50 on Major prion protein was 5.33 µM (active); in the test “cells [5]”, > 138 µM (inactive).

On to `CCN1C(C#N)=C(C#N)N=C(C)CC1(C)C`, for which, in test [6], the AC50 was 30.5 µM (active).

Regarding `O=C(O)CCCC(=O)OCCCc1cc2ccccc2c(=O)o1`, the concentration at half-maximal activity (AC50) on Caspase-6 was 1.51 µM (active).

For orientation: EC50 means the concentration giving half of the maximal effect. Turning to `CN1CCN(c2ccc(NC(=O)c3ccc4ccccc4c3)cc2)CC1`, the EC50 in test [7] was 7.8 µM (inconclusive); in test [8], 8.96 µM (inconclusive); in test [9] it was 9.94 µM (inconclusive). Further, the IC50 (in “cells [10]”; in [11]) was > 67.6 µM (inactive) each time.

With `CN(C)c1ccc(NC(=O)c2cn(-c3ccccc3)nc2-c2cccs2)cc1`, the IC50 was 2.48 µM (not active) in [12], > 69.5 µM (inactive) in test [13] and > 69.5 µM (inactive) in test [14].

In the case of `Fc1ccc(N=C(S)NNc2ncc(C(F)(F)F)cc2Cl)c(F)c1`, the EC50 in the test “cells [15]” is > 29.9 µM (inactive).

Consider `c1ccc(-n2c(SCc3cccc4ccccc34)nnc2-c2ccccn2)cc1`, for which the IC50 is > 69.4 µM (inactive) in test [16] and 24.1 µM (inactive) in [17].

In the case of `Cc1nn(CC(=O)N/N=C/c2cccs2)c(C)c1[N+](=O)[O-]`, the IC50 (in the test “cells [18]”; in [20]) was > 29.9 µM (inactive) throughout. The EC50 in [19] is 2.82 µM (active); in the test “cells [21]”, > 29.9 µM (inactive).

For the compound `CCOc1nc(C#N)nc(N2CCCCC2)n1`, on Galanin receptor type 3, the IC50 was 1.09 µM (active). Further, the EC50 in “cells [15]” is > 29.9 µM (inactive).
